According to patent US12552825B2 (Zikani Therapeutics, Inc., priority 2019, dated 2026):
≈ marks a conversion by molar mass, not a printed value.

Experiments:
Format in all cases: cell-based
P. aeruginosa MP-3 = experiment: MIC determination by CLSI broth dilution, P. aeruginosa MP-3; settings: Pseudomonas aeruginosa, MP3, strain MP-3
E. coli MP-4 = experiment: MIC determination by CLSI broth dilution, E. coli MP-4; settings: Escherichia coli, MP4, CLSI broth dilution; strain MP-4
S. aureus MP-12 = experiment: microbe, parasite or virus in culture; settings: Staphylococcus aureus, MP12, read-out: MIC S. aureus MP-12
K. pneumoniae MP-546 = experiment: MIC determination by CLSI broth dilution, K. pneumoniae MP-546; settings: Klebsiella pneumoniae, MP546, CLSI broth dilution; strain MP-546
A. baumannii MP-15 = experiment: MIC determination by CLSI broth dilution, A. baumannii MP-15; settings: Acinetobacter baumannii, MP15, strain MP-15, read-out: MIC A. baumanii MP-15

SMILES	MIC (P. aeruginosa MP-3) [mg/L]	MIC (E. coli MP-4) [mg/L]	MIC (S. aureus MP-12) [mg/L]	MIC (K. pneumoniae MP-546) [mg/L]	MIC (A. baumannii MP-15) [mg/L]
CO[C@]1(C)C[C@@H](C)CN[C@@H](CN(C)C)COC(=O)C(C)(C)C(=O)[C@H](C)[C@H]1O[C@@H]1O[C@H](C)C[C@H](N(C)C)[C@H]1O [Compound 17, (3S,6R,8R,9R,10R)-9-(((2S,3R,4S,6R)-4-(dimethylamino)-3-hydroxy-6-methyltetrahydro-2H-pyran-2-yl)oxy)-3-((dimethylamino)methyl)-8-methoxy-6,8,10,12,12-pentamethyl-1-oxa-4-azacyclotridecane-11,13-dione]	> 32	> 32	> 32	> 32	> 32
CCN(CC)CCC[C@H]1COC(=O)C(C)(C)C(=O)[C@H](C)[C@@H](O[C@@H]2O[C@H](C)C[C@H](N(C)C)[C@H]2O)[C@](C)(OC)C[C@@H](C)CN1C [Compound 19, (3S,6R,8R,9R,10R)-3-(3-(diethylamino)propyl)-9-(((2S,3R,4S,6R)-4-(dimethylamino)-3-hydroxy-6-methyltetrahydro-2H-pyran-2-yl)oxy)-8-methoxy-4,6,8,10,12,12-hexamethyl-1-oxa-4-azacyclotridecane-11,13-dione]	> 32	< 4	4 to 32 (≈ 6.52 to 52.1 µM)	< 4	> 32
CCN(C)CCC[C@H]1COC(=O)C(C)(C)C(=O)[C@H](C)[C@@H](O[C@@H]2O[C@H](C)C[C@H](N(C)C)[C@H]2O)[C@](C)(OC)C[C@@H](C)CN1C [Compound 20, (3S,6R,8R,9R,10R)-9-(((2S,3R,4S,6R)-4-(dimethylamino)-3-hydroxy-6-methyltetrahydro-2H-pyran-2-yl)oxy)-3-(3-(ethyl(methyl)amino)propyl)-8-methoxy-4,6,8,10,12,12-hexamethyl-1-oxa-4-azacyclotridecane-11,13-dione]	> 32	< 4	4 to 32 (≈ 6.67 to 53.3 µM)	< 4	> 32
CCC(O)C(C)CN1CCC(C[C@@H]2COC(=O)C(C)(C)C(=O)[C@H](C)[C@@H](O[C@@H]3O[C@H](C)C[C@H](N(C)C)[C@H]3O)[C@](C)(OC)C[C@@H](C)CN2C)CC1 (stereo partly shown) [Compound 35]	> 32	< 4	4 to 32 (≈ 5.73 to 45.8 µM)	< 4	> 32
CO[C@]1(C)C[C@@H](C)CN(C)[C@H](CC2CCN(CC(C)(C)C)CC2)C(C)(C)OC(=O)C(C)(C)C(=O)[C@H](C)[C@H]1O[C@@H]1O[C@H](C)C[C@H](N(C)C)[C@H]1O [Compound 36]	> 32	< 4	4 to 32 (≈ 5.75 to 46 µM)	4 to 32 (≈ 5.75 to 46 µM)	4 to 32 (≈ 5.75 to 46 µM)
CO[C@]1(C)C[C@@H](C)CN(C)[C@@H](CC2CCN(CC(C)(C)C)CC2)C(C)(C)OC(=O)C(C)(C)C(=O)[C@H](C)[C@H]1O[C@@H]1O[C@H](C)C[C@H](N(C)C)[C@H]1O [Compound 37]	> 32	4 to 32 (≈ 5.75 to 46 µM)	> 32	> 32	> 32
CCCN1CCC(C[C@@H]2[C@@H](C)OC(=O)C(C)(C)C(=O)[C@H](C)[C@@H](O[C@@H]3O[C@H](C)C[C@H](N(C)C)[C@H]3O)[C@](C)(OC)C[C@@H](C)CN2C)CC1 [Compound 38]	> 32	< 4	> 32	< 4	> 32
CO[C@]1(C)C[C@@H](C)CN(C)[C@H](CC2CCN(CC(C)(C)C)CC2)[C@@H](C)OC(=O)C(C)(C)C(=O)[C@H](C)[C@H]1O[C@@H]1O[C@H](C)C[C@H](N(C)C)[C@H]1O [Compound 39]	> 32	< 4	> 32	4 to 32 (≈ 5.87 to 46.9 µM)	> 32
CO[C@]1(C)C[C@@H](C)CN(C)[C@H](CC2CCN(CC[C@@H](C)CCC=C(C)C)CC2)[C@@H](C)OC(=O)C(C)(C)C(=O)[C@H](C)[C@H]1O[C@@H]1O[C@H](C)C[C@H](N(C)C)[C@H]1O [Compound 40]	> 32	< 4	4 to 32 (≈ 5.33 to 42.7 µM)	4 to 32 (≈ 5.33 to 42.7 µM)	4 to 32 (≈ 5.33 to 42.7 µM)
CCCN1CCC(C[C@H]2COC(=O)C(C)(C)C(=O)[C@H](C)[C@@H](O[C@@H]3O[C@H](C)C[C@H](N(C)C)[C@H]3O)[C@](C)(OC)C[C@@H](C)CN2C)CC1 [Compound 41]	> 32	4 to 32 (≈ 6.25 to 50 µM)	> 32	4 to 32 (≈ 6.25 to 50 µM)	> 32
CCCN1CCC(C[C@@H]2COC(=O)C(C)(C)C(=O)[C@H](C)[C@@H](O[C@@H]3O[C@H](C)C[C@H](N(C)C)[C@H]3O)[C@](C)(OC)C[C@@H](C)CN2C)CC1 [Compound 42]	> 32	< 4	4 to 32 (≈ 6.25 to 50 µM)	< 4	> 32
CO[C@]1(C)C[C@@H](C)CN(C)[C@@H](CC2CCN(C(=O)C3CC3)CC2)COC(=O)C(C)(C)C(=O)[C@H](C)[C@H]1O[C@@H]1O[C@H](C)C[C@H](N(C)C)[C@H]1O [Compound 44]	> 32	> 32	4 to 32 (≈ 6.01 to 48.1 µM)	> 32	> 32
CO[C@]1(C)C[C@@H](C)CN(C)[C@H](CC2CCN(C(=O)C3CC3)CC2)COC(=O)C(C)(C)C(=O)[C@H](C)[C@H]1O[C@@H]1O[C@H](C)C[C@H](N(C)C)[C@H]1O [Compound 45]	> 32	4 to 32 (≈ 6.01 to 48.1 µM)	4 to 32 (≈ 6.01 to 48.1 µM)	4 to 32 (≈ 6.01 to 48.1 µM)	> 32
CCCN1CCC(C[C@H]2N(C)C[C@H](C)C[C@@](C)(OC)[C@H](O[C@@H]3O[C@H](C)C[C@H](N(C)C)[C@H]3O)[C@@H](C)C(=O)C(C)(C)C(=O)OC2(C)C)CC1 [Compound 46]	> 32	< 4	4 to 32 (≈ 5.99 to 47.9 µM)	< 4	> 32
CO[C@]1(C)C[C@@H](C)CN(C)[C@H](CC2CCN(C(C)C)CC2)C(C)(C)OC(=O)C(C)(C)C(=O)[C@H](C)[C@H]1O[C@@H]1O[C@H](C)C[C@H](N(C)C)[C@H]1O [Compound 47]	> 32	< 4	4 to 32 (≈ 5.99 to 47.9 µM)	4 to 32 (≈ 5.99 to 47.9 µM)	> 32
CCCN1CCC(C[C@@H]2N(C)C[C@H](C)C[C@@](C)(OC)[C@H](O[C@@H]3O[C@H](C)C[C@H](N(C)C)[C@H]3O)[C@@H](C)C(=O)C(C)(C)C(=O)OC2(C)C)CC1 [Compound 48]	> 32	< 4	> 32	4 to 32 (≈ 5.99 to 47.9 µM)	> 32
CO[C@]1(C)C[C@@H](C)CN(C)[C@H](CC2CCN(C)CC2)[C@@H](C)OC(=O)C(C)(C)C(=O)[C@H](C)[C@H]1O[C@@H]1O[C@H](C)C[C@H](N(C)C)[C@H]1O [Compound 49]	> 32	< 4	> 32	4 to 32 (≈ 6.39 to 51.1 µM)	> 32
CO[C@]1(C)C[C@@H](C)CN(C)[C@H](CC2CCN(CC(C)(C)C)CC2)COC(=O)C(C)(C)C(=O)[C@H](C)[C@H]1O[C@@H]1O[C@H](C)C[C@H](N(C)C)[C@H]1O [Compound 54]	> 32	< 4	4 to 32 (≈ 5.99 to 47.9 µM)	< 4	> 32
CO[C@]1(C)C[C@@H](C)CN(C)[C@@H](CC2CCN(CC(C)(C)C)CC2)COC(=O)C(C)(C)C(=O)[C@H](C)[C@H]1O[C@@H]1O[C@H](C)C[C@H](N(C)C)[C@H]1O [Compound 66]	> 32	4 to 32 (≈ 5.99 to 47.9 µM)	> 32	4 to 32 (≈ 5.99 to 47.9 µM)	> 32
CO[C@]1(C)C[C@@H](C)CN(C)[C@@H](CC2CCN(CC(C)C)CC2)COC(=O)C(C)(C)C(=O)[C@H](C)[C@H]1O[C@@H]1O[C@H](C)C[C@H](N(C)C)[C@H]1O [Compound 67]	> 32	4 to 32 (≈ 6.12 to 48.9 µM)	> 32	4 to 32 (≈ 6.12 to 48.9 µM)	> 32
CO[C@]1(C)C[C@@H](C)CN(C)[C@@H](CC2CCN(C(C)C)CC2)COC(=O)C(C)(C)C(=O)[C@H](C)[C@H]1O[C@@H]1O[C@H](C)C[C@H](N(C)C)[C@H]1O [Compound 68]	> 32	4 to 32 (≈ 6.25 to 50 µM)	> 32	4 to 32 (≈ 6.25 to 50 µM)	> 32
CO[C@]1(C)C[C@@H](C)CN(C)[C@@H](CC2CCN(C3CC3)CC2)COC(=O)C(C)(C)C(=O)[C@H](C)[C@H]1O[C@@H]1O[C@H](C)C[C@H](N(C)C)[C@H]1O [Compound 69]	> 32	4 to 32 (≈ 6.27 to 50.2 µM)	4 to 32 (≈ 6.27 to 50.2 µM)	4 to 32 (≈ 6.27 to 50.2 µM)	> 32
CCCCCCCN1CCC(C[C@H]2COC(=O)C(C)(C)C(=O)[C@H](C)[C@@H](O[C@@H]3O[C@H](C)C[C@H](N(C)C)[C@H]3O)[C@](C)(OC)C[C@@H](C)CN2C)CC1 [Compound 70]	> 32	< 4	> 32	4 to 32 (≈ 5.75 to 46 µM)	> 32
CO[C@]1(C)C[C@@H](C)CN(C)[C@@H](CC2CCN(CC[C@@H](C)CCC=C(C)C)CC2)COC(=O)C(C)(C)C(=O)[C@H](C)[C@H]1O[C@@H]1O[C@H](C)C[C@H](N(C)C)[C@H]1O [Compound 71]	> 32	4 to 32 (≈ 5.43 to 43.5 µM)	> 32	> 32	> 32
CO[C@]1(C)C[C@@H](C)CN(C)[C@@H](CC2CCN(CC3CCCCC3)CC2)COC(=O)C(C)(C)C(=O)[C@H](C)[C@H]1O[C@@H]1O[C@H](C)C[C@H](N(C)C)[C@H]1O [Compound 72]	> 32	< 4	> 32	4 to 32 (≈ 5.76 to 46.1 µM)	> 32
CO[C@]1(C)C[C@@H](C)CN(C)[C@@H](CN2CCN(S(C)(=O)=O)CC2)[C@H](C)OC(=O)C(C)(C)C(=O)[C@H](C)[C@H]1O[C@@H]1O[C@H](C)C[C@H](N(C)C)[C@H]1O [Compound 80, (2S,3S,6R,8R,9R,10R)-9-(((2S,3R,4S,6R)-4-(dimethylamino)-3-hydroxy-6-methyltetrahydro-2H-pyran-2-yl)oxy)-8-methoxy-2,4,6,8,10,12,12-heptamethyl-3-((4-(methylsulfonyl)piperazin-1-yl)methyl)-1-oxa-4-azacyclotridecane-11,13-dione]	> 32	> 32	4 to 32 (≈ 5.79 to 46.3 µM)	> 32	> 32
